# Test results taken from patent US5632983A, “Method for treating secondary immunodeficiency” (University of South Florida, priority 1994, dated 1997).
# No end group written: not given here.
# What was measured:
# thymocytes = experiment: Proliferative response (3H-thymidine) of thymocytes in vitro after in vivo treatment, hydrocortisone induced thymic involution in aged mice
# Procedure: (§1) The model of hydrocortisone induced thymic involution in aged mice was used unless otherwise indicated (Hadden et al., 1992b).
# (§2) Female BALB/c (Life Science, St. Petersburg, Fla.) aged retired breeder mice (8-9 months) whose thymuses had begun to involute were employed in in vivo tests. Mice were weight matched and randomly pooled in groups of five. Animals were fed standard laboratory diets with drinking water ad lib. All mice, with exception of a control group, were treated intraperitoneally (i.p.) with hydrocortisone (5 mg/mouse in 0.1 ml 0.9% sodium chloride) for two consecutive days to induce a chemical thymectomy and reduction of spleen weight.
# (§3) Each treatment group had five (5) animals and each experiment was repeated 2-5 times. Treatment was initiated intraperitoneally (i.p.), on Day 3 and continued once per day for a total of five (5) days. Treatment groups were injected with one of the following in vivo treatments as indicated in the text:
# (§4) On day 8, the mice were weighed, sacrificed by cervical dislocation, and their spleens and thymuses removed and weighed. The organs were minced, the residual erythrocytes were lysed using ammonium chloride (Mishell and Shiigi, "Selected Methods in Cellular Immunology", 1981), and the cells counted.
# (§5) The proliferative response of the cells to various substances was then determined. A sample of cells was prepared for cell culture at 37° C., 5% CO2 in RPMI 1640 medium with 5% fetal bovine serum, penicillin (100 U/ml), streptomycin (100 μg/ml) and 2-mercaptoethanol (2×10^-5 M). The cells were plated in 0.2 ml microwell plates in quadruplicate at a concentration of 1.5×10^6 /ml and incubated for 72 hours with one of the following as indicated in the text:
# (§6) To measure DNA synthesis, the culture was terminated with an 18 hours pulse of tritiated thymidine (^3 H-Thymidine; NEN, Boston, Mass.; specific activity 6.7 Ci/mM), harvested with a multiple automatic sample harvester and processed for liquid scintillation counting. The results were expressed as arithmetic mean of cpm from four samples. In order to simplify the representation of data obtained with different animals, the results were pooled and calculated together and in some cases expressed as a ratio to control±SEM.
# (§7) In a series of experiments, mice with involuted thymuses were treated in vivo with NCM, Thymosin α1, Thymosin fraction V, combinations of these factors, and saline or media controls. The spleens and thymuses were removed, the cells were tested for cell proliferation responses to stimulation in vitro with the interleukins (IL1, IL2, NCM) or with mitogens (PHA; ConA).
# splenocytes = experiment: Proliferative response (3H-thymidine) of splenocytes in vitro after in vivo treatment, hydrocortisone induced thymic involution in aged mice
# Procedure: as §1, §2, §3, §4, §5, §6, §7
# [1] = Spleen weight in hydrocortisone-treated aged mice; format: in vivo; details: NCM 50 U of IL-2 per mouse/day; Thymosin α1 5 or 20 microgram/mouse/day (pooled); i.p. 5 days, day 8
# Procedure: as §2, §3, §4
# (§8) Animals, hydrocortisone treatment, and experimental injections were as described in the general methods. The NCM was injected at 50 U of IL-2 per mouse/day. The Thymosin α1 (T alpha-1 or Tα1) was injected at 5 or 20 microgram/mouse/day.
# [2] = Thymus weight in hydrocortisone-treated aged mice; format: in vivo; details: NCM 50 U of IL-2 per mouse/day; Thymosin α1 5 or 20 microgram/mouse/day (pooled); i.p. 5 days, day 8
# Procedure: as §2, §3, §4, §8
substance,measurement,setting,value
"Thymosin α1 (SDAAVDTSSEITTKDLKEKKEVVEEAEN; not fully specified; ends and bridges not checked; UniProt P01252 2-29, looked up) [28 amino acid peptide initially extracted from bovine thymus and later synthesized]",dose of optimal effects on thymocyte responses to interleukins and mitogen,"thymocytes; FIG. 1, dose response 0.2 to 20 μg/animal/day in vivo",5 μg/mouse
same,"thymocyte responses in vitro to media, rIL-1, rIL-2 and NCM","thymocytes; FIG. 3, in vivo i.p. once per day for 5 days, Thymosin α1 5 μg/mouse, NCM 50 units IL-2 equivalence",increased many of the responses
same,thymocyte responses to mitogens PHA and ConA,"thymocytes; FIG. 5, in vivo treatments as in FIG. 3",significantly augmented both responses
same,"thymocyte responses to rIL-1, IL-2, NCM or ConA","thymocytes; FIGS. 7 and 9, ratio to saline treated control, Thymosin α1 5 μg/mouse/day, TF5 100 μg/mouse/day, NCM 50 units",augmented all of the responses
same,dose of optimal effects on splenocyte responses to interleukins and mitogen,"splenocytes; FIG. 2, dose response 0.2 to 20 μg/animal/day in vivo",5 μg/mouse
same,"splenocyte responses in vitro to media, rIL-1, rIL-2 and NCM","splenocytes; FIG. 4, in vivo i.p. once per day for 5 days, Thymosin α1 5 μg/mouse, NCM 50 units IL-2 equivalence",increased many of the responses
same,splenocyte responses to mitogens PHA and ConA,"splenocytes; FIG. 6, in vivo treatments as in FIG. 3",significantly augmented both responses
same,"splenocyte responses to rIL-1, IL-2, NCM or ConA","splenocytes; FIGS. 8 and 10, ratio to saline treated control, Thymosin α1 5 μg/mouse, TF5 100 μg/mouse, NCM 50 units",augmented all of the responses
same,SPLEEN WEIGHT (mg) Mean ± S.E.M.,[1],127.66 ± 5.78 mg
same,THYMUS WEIGHT (mg) Mean ± S.E.M.,[2],25.75 ± 4.45 mg
